± gives the expanded uncertainty stated by the source.
Legend:
[1] = for surface tension liquid-gas: Ring tensiometer; for viscosity: 100 kPa, Liquid, Capillary tube (Ostwald / Ubbelohde) method
[2] = mn = molality of the nth substance listed, in mol/kg; conditions: m2 = 0; for surface tension liquid-gas: Ring tensiometer; for viscosity / mass density / speed of sound: 100 kPa, Liquid; for viscosity: Capillary tube (Ostwald / Ubbelohde) method; for mass density: Vibrating tube method; for speed of sound: Frequency=3 MHz, Single path-length method

Row | surface tension liquid-gas ([1]; 293.15 K) [mN/m] | viscosity ([1]; 293.15 K) [mPa·s] | surface tension liquid-gas ([1]; 303.15 K) [mN/m] | viscosity ([1]; 303.15 K) [mPa·s] | surface tension liquid-gas ([1]; 313.15 K) [mN/m] | viscosity ([1]; 313.15 K) [mPa·s] | surface tension liquid-gas ([1]; 323.15 K) [mN/m] | viscosity ([1]; 323.15 K) [mPa·s] | surface tension liquid-gas ([2]; 293.15 K) [mN/m] | viscosity ([2]; 293.15 K) [mPa·s] | surface tension liquid-gas ([2]; 303.15 K) [mN/m] | viscosity ([2]; 303.15 K) [mPa·s] | mass density ([2]; 303.15 K) [kg/m3] | surface tension liquid-gas ([2]; 313.15 K) [mN/m] | viscosity ([2]; 313.15 K) [mPa·s] | speed of sound ([2]; 313.15 K) [m/s] | mass density ([2]; 313.15 K) [kg/m3] | surface tension liquid-gas ([2]; 323.15 K) [mN/m] | viscosity ([2]; 323.15 K) [mPa·s] | speed of sound ([2]; 323.15 K) [m/s] | Structure (SMILES)
1 | 72.6 ± 0.9 | 0.993 ± 0.05 | 71.1 ± 0.9 | 0.802 ± 0.05 | 69.2 ± 0.9 | 0.661 ± 0.05 | 67.7 ± 0.9 | 0.555 ± 0.05 | – | – | – | – | – | – | – | – | – | – | – | – | O [water]
2 | – | – | – | – | – | – | – | – | 72.6 ± 0.9 | 0.993 ± 0.05 | 71.1 ± 0.9 | 0.802 ± 0.05 | 995.9 ± 2 | 69.2 ± 0.9 | 0.661 ± 0.05 | 1529.1 ± 0.7 | 992.3 ± 2 | 67.7 ± 0.9 | 0.555 ± 0.05 | 1541.5 ± 0.7 | O [water] + C1N2CN3CN1CN(C2)C3

— the NIST ThermoML archive (doi:10.1021/acs.jced.8b00492)
